# pIC50: −log10 of the molar value.
# Key:
# Format in all cases: cell-based, mouse
# CTSK = experiment: Q-PCR of osteoclast marker gene: CTSK; conditions: RANKL 100 ng/ml, M-CSF 30 ng/ml, 5 days
# c-Fos = experiment: Q-PCR of osteoclast marker gene: c-Fos; conditions: RANKL 100 ng/ml, M-CSF 30 ng/ml, 5 days
# TRAP = experiment: Q-PCR of osteoclast marker gene: TRAP; conditions: RANKL 100 ng/ml, M-CSF 30 ng/ml, 5 days
# p38 kinase [p38激酶] = experiment: Western blot: RANKL-stimulated p38 phosphorylation; conditions: BMMs, RANKL 15 min; 0, 2.5, 5, 10 μM NCTD
# NFATc1 = experiment: Q-PCR of osteoclast marker gene: NFATc1; conditions: RANKL 100 ng/ml, M-CSF 30 ng/ml, 5 days
# [1] = tested on: extracellular signal-regulated kinase (ERK) [细胞外信号调节激酶(ERK)]; experiment: Western blot: RANKL-stimulated ERK phosphorylation; conditions: BMMs, RANKL 15 min; 0, 2.5, 5, 10 μM NCTD
# osteoclasts [破骨细胞] [2] = experiment: TRAP staining: stage of osteoclast formation inhibited by NCTD; conditions: 5 μM NCTD
# IκBα = IκBα degradation (NF-κB signalling pathway)
# CTR = experiment: Q-PCR of osteoclast marker gene: CTR; conditions: RANKL 100 ng/ml, M-CSF 30 ng/ml, 5 days
# BMM cells [BMMs] [3] = experiment: Annexin V-FITC/PI flow cytometry: apoptosis of BMMs; conditions: BMMs, 0, 2.5, 5, 10 μM NCTD, 48 h
# [4] = tested on: c-Jun N-terminal kinase (JNK) [c-Jun氨基端激酶(JNK)]; experiment: Western blot: JNK (MAPK family); conditions: BMMs
# [5] = MTT assay of the effect of NCTD on viability of bone-marrow-derived macrophages; conditions: mouse, bone marrow macrophages; MTT, BMMs, 48 h; read-out: concentration from which BMM activity begins to be affected
# BMM cells [BMMs] [6] = experiment: as above
# osteoclasts [破骨细胞] [7] = experiment: TRAP staining: RANKL-induced osteoclast differentiation from BMMs; conditions: RANKL induction 5 days, 0, 1, 2.5, 5, 10 μM NCTD
# [8] = pretreatment (12 h before RANKL)
smiles,measurement,setting,value
"O=C1OC(=O)C2C3CCC(O3)C12 (stereo not shown) [NCTD, 去甲斑蝥素]",CTSK expression,CTSK,浓度依赖地抑制
same,c-Fos expression,c-Fos,浓度依赖地抑制
same,TRAP expression,TRAP,浓度依赖地抑制
same,p38 phosphorylation,p38 kinase [p38激酶],明显受到抑制
same,NFATc1 expression,NFATc1,浓度依赖地抑制
same,ERK phosphorylation,[1],明显受到抑制
same,osteoclast number and area,osteoclasts [破骨细胞] [2]; early treatment (first 2 days of induction),能够显著改变破骨细胞数量和面积
same,osteoclast area,osteoclasts [破骨细胞] [2]; late treatment (last 3 days of induction),对破骨细胞面积没有明显影响
same,osteoclast formation,osteoclasts [破骨细胞] [2]; [8],在一定程度上可抑制破骨细胞形成
same,osteoclast number and size vs control,osteoclasts [破骨细胞] [2]; [8],均有明显差异
same,inhibition of osteoclast differentiation,osteoclasts [破骨细胞] [2]; pretreatment + whole-course treatment,对破骨细胞分化抑制最为明显
same,inhibition of osteoclast differentiation,osteoclasts [破骨细胞] [2]; whole-course treatment (5 days),对破骨细胞分化抑制最为明显
same,IκBα degradation,"IκBα; BMMs, RANKL-stimulated",没有抑制IκBα的降解
same,RANKL-activated NF-κB signalling pathway,IκBα; by IκBα degradation,没有明显影响
same,CTR expression,CTR,浓度依赖地抑制
same,apoptosis,BMM cells [BMMs] [3],不会引起细胞凋亡
same,inhibition of JNK,"[4]; RANKL 15 min, 0, 2.5, 5, 10 μM NCTD",没有明显抑制作用
same,JNK phosphorylation,[4]; RANKL-stimulated,没有影响
same,MCC at 48 h,[5],20 µM
same,pIC50,"BMM cells [BMMs] [6]; Mus musculus, Macrophage, MTT, BMMs, 48 h, 0-320 μM NCTD, GraphPad Prism, read-out: half-inhibitory concentration (IC50) on BMMs",4.22
same,toxicity to BMM cells,BMM cells [BMMs] [6]; at 10 μM and below,无毒性作用
same,osteoclast formation (osteoclast number and area),osteoclasts [破骨细胞] [7],"能够明显抑制破骨细胞的生成,且呈剂量依赖性关系"

# Reference: patent CN108992440A, “去甲斑蝥素在制备治疗破骨细胞过度激活相关疾病药物中的应用” (priority 2018, dated 2018)
